Assay results from the NIST ThermoML archive (doi:10.1021/je4009415).

Test: xn = mol fraction of the nth substance listed
Conditions: Liquid, Vibrating tube method

CCOC(=O)CC [ethyl propanoate] + CCCCCCCCC
Conditions | mass density [kg/m3]
308.15 K, x1 = 0.6035 | 783.03
308.15 K, x1 = 0.6525 | 791.81
308.15 K, x1 = 0.6998 | 800.82
308.15 K, x1 = 0.7473 | 810.39
308.15 K, x1 = 0.794 | 820.41
308.15 K, x1 = 0.8533 | 833.93
308.15 K, x1 = 0.9006 | 845.51
308.15 K, x1 = 0.9506 | 858.66
308.15 K, x1 = 1 | 872.62
318.15 K, x1 = 0.0516 | 702.64
318.15 K, x1 = 0.0909 | 706.6
318.15 K, x1 = 0.1617 | 713.7
318.15 K, x1 = 0.219 | 719.88
318.15 K, x1 = 0.2413 | 722.49
318.15 K, x1 = 0.2923 | 728.44
318.15 K, x1 = 0.3518 | 735.96
318.15 K, x1 = 0.4062 | 743.15
318.15 K, x1 = 0.4541 | 749.92
318.15 K, x1 = 0.5056 | 757.57
318.15 K, x1 = 0.556 | 765.57
318.15 K, x1 = 0.6001 | 772.83
318.15 K, x1 = 0.6514 | 781.78
318.15 K, x1 = 0.6939 | 789.72
318.15 K, x1 = 0.7552 | 801.69
318.15 K, x1 = 0.7988 | 810.87
318.15 K, x1 = 0.8559 | 823.94
318.15 K, x1 = 0.9062 | 835.91
318.15 K, x1 = 0.9524 | 847.95
318.15 K, x1 = 1 | 861.08
328.15 K, x1 = 0.0514 | 694.83
328.15 K, x1 = 0.0965 | 699.04
328.15 K, x1 = 0.1572 | 705.05
328.15 K, x1 = 0.2061 | 710.14
328.15 K, x1 = 0.2627 | 716.42
328.15 K, x1 = 0.3163 | 722.76
328.15 K, x1 = 0.3619 | 728.36
328.15 K, x1 = 0.4059 | 734.14
328.15 K, x1 = 0.4602 | 741.6
328.15 K, x1 = 0.5053 | 748.09
328.15 K, x1 = 0.5543 | 755.65
328.15 K, x1 = 0.6024 | 763.42
328.15 K, x1 = 0.6525 | 772.01
328.15 K, x1 = 0.6996 | 780.61
328.15 K, x1 = 0.7535 | 791.02
328.15 K, x1 = 0.8019 | 801
328.15 K, x1 = 0.8606 | 813.96
328.15 K, x1 = 0.8933 | 821.83
328.15 K, x1 = 0.9504 | 836
328.15 K, x1 = 1 | 849.41
